According to article PMC9321043, “Synthesis, Structure–Activity Relationships, and Parasitological Profiling of Brussonol Derivatives as New Plasmodium falciparum Inhibitors” (Pharmaceuticals, 2022):

System: hemozoin formation
Experiment: Hemozoin formation inhibition assay
Assay type: biochemical
Settings: hemin 25 µM, pH 4.8, 4 h, one experiment in triplicate
Experimental: 2. Hemozoin Formation Inhibition Assay
The hemozoin formation inhibition assay was performed as described previously.12 Briefly, serial 1:3 dilutions, in a 96‐well plate, wit h brussonol were made in a final volume of 20 μL in a concentration 10 times higher than the final concentration of the assay. Secondly, 90 μ L of freshly prepared hemin (at a final concentration of 25 μM) solution in 1M NaOAc/HOAc buffer pH 4.8 were added followed by addition of 90 μ L of 5.4 mg/L Tween 20 solution freshly prepared. The plates were let to stand for 4 hours at 37 °C followed by resuspension with multichannel pippete and read at 415 and 630 nm using a SpectraMAX Plus 384 plate reader (Molecular Devices Corp., Sunnyvale, CA).
Due to the absence of enough compound, this experiment wa s performed only once, but with internal triplicate. Chloroquine (CQ) and pyrimethamine (PYR) were used as positive and negative control of inhibition, respectively.
Inhibition (%) = 100 – 100 x [(Aco ntro l – Asample) / (Acontrol - Amin)] Acontrol is the difference of the absorbance at 415 and 630 nm of the negative control (Hemin +, Tween 20 ‐, Compound ‐); Amin is the difference of the absorbance at 415 and 630 nm of the positive control (Hemin +, Tween 20 +, Compound ‐ ); Asample is the difference of the absorbance at 415 and 630 nm of the sample. The hemozoin formation inhibition assay was performed to evaluate if brussonol act inhibiting hemozoin formation in P. falciparum. CQ, which is a well‐known inhibitor of hemozoin […]
Figure S1. Hemozoin formation inhibition assay. Different concentrations of CQ (black triangles), PYR (red squares) and brussonol (blue circles) were incubated with heme in triplicates. Th e absorbance was recorded at 415/630 nm to determine the hemozoin formation inhibition. […]

Compound: CC(C)c1cc2c(c(O)c1O)C[C@@]13CCCC(C)(C)[C@@H]1C[C@@H]2O3 [Compound 1, brussonol]
- hemozoin formation inhibition (in words) (listed as Brussonol): do not act inhibiting hemozoin formation
- hemozoin formation inhibition (in words) (listed as brussonol): did not interfere with hemozoin polymerization
